Measurements reported in US12226424B2, “Target protein degradation compounds, their anti-tumor use, their intermediates and use of intermediates” (ShanghaiTech University, priority 2018, dated 2025).

These molecules were tested on CDK4/6 protein (assay: Western-blot determination of CDK4/6 protein degradation (DC50) in T-47D cells). Conditions: 24 h drug treatment, read-out: DC50(nM)/T-47D cell line.
Assay type: cell-based, human

| DC50 [nM] | SMILES |
| --- | --- |
| 0.05 to 0.5 | Cc1nc2c(F)cc(-c3nc(Nc4ccc(CN5CCN(CCCCCCSc6cccc7c6CN(C6CCC(=O)NC6=O)C7=O)CC5)cn4)ncc3F)cc2n1C(C)C (stereo not drawn) [SIAIS262173, 3-(4-((6-(4-((6-((5-fluoro-4-(4-fluoro-1-isopropyl-2-methyl-1H-benzo[d]imidazol-6-yl)pyrimidin-2-yl)amino)pyridin-3-yl)methyl)piperazin-1-yl)hexyl)thio)-1-oxoisoindolin-2-yl)piperidine-2,6-dione] |
| < 1 | CN(C)C(=O)c1cc2cnc(Nc3ccc(N4CCN(C(=O)CSc5cccc6c5CN(C5CCC(=O)NC5=O)C6=O)CC4)cn3)nc2n1C1CCCC1 (stereo not drawn) [SIAIS219086, 7-cyclopentyl-2-((5-(4-(2-((2-(2,6-dioxopiperidin-3-yl)-1-oxoisoindolin-4-yl)thio)acetyl)piperazin-1-yl)pyridin-2-yl)amino)-N,N-dimethyl-7H-pyrrolo[2,3-d]pyrimidine-6-carboxamide] |
| < 100 | CN(C)C(=O)c1cc2cnc(Nc3ccc(N4CCN(C(=O)CCSc5cccc6c5C(=O)N(C5CCC(=O)NC5=O)C6=O)CC4)cn3)nc2n1C1CCCC1 (stereo not drawn) [SIAIS219101, 7-cyclopentyl-2-((5-(4-(3-((2-(2,6-dioxopiperidin-3-yl)-1,3-dioxoisoindolin-4-yl)thio)propanoyl)piperazin-1-yl)pyridin-2-yl)amino)-N,N-dimethyl-7H-pyrrolo[2,3-d]pyrimidine-6-carboxamide] |
| 1 to 10 | CC(=O)c1c(C)c2cnc(Nc3ccc(N4CCN(C(=O)COCCOCCOCCSc5cccc6c5C(=O)N(C5CCC(=O)NC5=O)C6=O)CC4)cn3)nc2n(C2CCCC2)c1=O (stereo not drawn) [SIAIS219060, 4-((2-(2-(2-(2-(4-(6-((6-acetyl-8-cyclopentyl-5-methyl-7-oxo-7,8-dihydropyrido[2,3-d]pyrimidin-2-yl)amino)pyridin-3-yl)piperazin-1-yl)-2-oxoethoxy)ethoxy)ethoxy)ethyl)thio)-2-(2,6-dioxopiperidin-3-yl)isoindoline-1,3-dione] |
| 1 to 10 | CN(C)C(=O)c1cc2cnc(Nc3ccc(N4CCN(C(=O)CCCSc5cccc6c5CN(C5CCC(=O)NC5=O)C6=O)CC4)cn3)nc2n1C1CCCC1 (stereo not drawn) [SIAIS219088, 7-cyclopentyl-2-((5-(4-(4-((2-(2,6-dioxopiperidin-3-yl)-1-oxoisoindolin-4-yl)thio)butanoyl)piperazin-1-yl)pyridin-2-yl)amino)-N,N-dimethyl-7H-pyrrolo[2,3-d]pyrimidine-6-carboxamide] |
| < 1 | CN(C)C(=O)c1cc2cnc(Nc3ccc(N4CCN(C(=O)COCCOCCOCCSc5cccc6c5C(=O)N(C5CCC(=O)NC5=O)C6=O)CC4)cn3)nc2n1C1CCCC1 (stereo not drawn) [SIAIS219113, 7-cyclopentyl-2-((5-(4-(2-(2-(2-(2-((2-(2,6-dioxopiperidin-3-yl)-1,3-dioxoisoindolin-4-yl)thio)ethoxy)ethoxy)ethoxy)acetyl)piperazin-1-yl)pyridin-2-yl)amino)-N,N-dimethyl-7H-pyrrolo[2,3-d]pyrimidine-6-carboxamide] |
| < 1 | CC(=O)c1c(C)c2cnc(Nc3ccc(N4CCN(CCSc5cccc6c5C(=O)N(C5CCC(=O)NC5=O)C6=O)CC4)cn3)nc2n(C2CCCC2)c1=O (stereo not drawn) [SIAIS219063, 4-((2-(4-(6-((6-acetyl-8-cyclopentyl-5-methyl-7-oxo-7,8-dihydropyrido[2,3-d]pyrimidin-2-yl)amino)pyridin-3-yl)piperazin-1-yl)ethyl)thio)-2-(2,6-dioxopiperidin-3-yl)isoindoline-1,3-dione] |
| 1 to 10 | CC(=O)c1c(C)c2cnc(Nc3ccc(N4CCN(C(=O)COCCOCCOCCOCCOCCSc5cccc6c5C(=O)N(C5CCC(=O)NC5=O)C6=O)CC4)cn3)nc2n(C2CCCC2)c1=O (stereo not drawn) [SIAIS219062, 4-((17-(4-(6-((6-acetyl-8-cyclopentyl-5-methyl-7-oxo-7,8-dihydropyrido[2,3-d]pyrimidin-2-yl)amino)pyridin-3-yl)piperazin-1-yl)-17-oxo-3,6,9,12,15-pentaoxaheptadecyl)thio)-2-(2,6-dioxopiperidin-3-yl)isoindoline-1,3-dione] |
| 5 | Cc1nc2c(F)cc(-c3nc(Nc4ccc(CN5CCN(C(=O)CCSc6cccc7c6CN(C6CCC(=O)NC6=O)C7=O)CC5)cn4)ncc3F)cc2n1C(C)C (stereo not drawn) [SIAIS262165, 3-(4-((3-(4-((6-((5-fluoro-4-(4-fluoro-1-isopropyl-2-methyl-1H-benzo[d]imidazol-6-yl)pyrimidin-2-yl)amino)pyridin-3-yl)methyl)piperazin-1-yl)-3-oxopropyl)thio)-1-oxoisoindolin-2-yl)piperidine-2,6-dione] |
| 1 to 10 | CN(C)C(=O)c1cc2cnc(Nc3ccc(N4CCN(C(=O)CCCCCSc5cccc6c5C(=O)N(C5CCC(=O)NC5=O)C6=O)CC4)cn3)nc2n1C1CCCC1 (stereo not drawn) [SIAIS219104, 7-cyclopentyl-2-((5-(4-(6-((2-(2,6-dioxopiperidin-3-yl)-1,3-dioxoisoindolin-4-yl)thio)hexanoyl)piperazin-1-yl)pyridin-2-yl)amino)-N,N-dimethyl-7H-pyrrolo[2,3-d]pyrimidine-6-carboxamide] |
| 0.2 to 1 | CN(C)C(=O)c1cc2cnc(Nc3ccc(N4CCN(C(=O)CCCCCSc5cccc6c5CN(C5CCC(=O)NC5=O)C6=O)CC4)cn3)nc2n1C1CCCC1 (stereo not drawn) [SIAIS219090, 7-cyclopentyl-2-((5-(4-(6-((2-(2,6-dioxopiperidin-3-yl)-1-oxoisoindolin-4-yl)thio)hexanoyl)piperazin-1-yl)pyridin-2-yl)amino)-N,N-dimethyl-7H-pyrrolo[2,3-d]pyrimidine-6-carboxamide] |
| 1 to 10 | CN(C)C(=O)c1cc2cnc(Nc3ccc(N4CCN(C(=O)COCCOCCOCCOCCSc5cccc6c5C(=O)N(C5CCC(=O)NC5=O)C6=O)CC4)cn3)nc2n1C1CCCC1 (stereo not drawn) [SIAIS219114, 7-cyclopentyl-2-((5-(4-(14-((2-(2,6-dioxopiperidin-3-yl)-1,3-dioxoisoindolin-4-yl)thio)-3,6,9,12-tetraoxatetradecanoyl)piperazin-1-yl)pyridin-2-yl)amino)-N,N-dimethyl-7H-pyrrolo[2,3-d]pyrimidine-6-carboxamide] |
| 0.04 to 0.2 | CN(C)C(=O)c1cc2cnc(Nc3ccc(N4CCN(C(=O)COCCOCCOCCSc5cccc6c5CN(C5CCC(=O)NC5=O)C6=O)CC4)cn3)nc2n1C1CCCC1 (stereo not drawn) [SIAIS219108, 7-cyclopentyl-2-((5-(4-(2-(2-(2-(2-((2-(2,6-dioxopiperidin-3-yl)-1-oxoisoindolin-4-yl)thio)ethoxy)ethoxy)ethoxy)acetyl)piperazin-1-yl)pyridin-2-yl)amino)-N,N-dimethyl-7H-pyrrolo[2,3-d]pyrimidine-6-carboxamide] |
| 1 to 10 | CN(C)C(=O)c1cc2cnc(Nc3ccc(N4CCN(C(=O)CCCCSc5cccc6c5CN(C5CCC(=O)NC5=O)C6=O)CC4)cn3)nc2n1C1CCCC1 (stereo not drawn) [SIAIS219089, 7-cyclopentyl-2-((5-(4-(5-((2-(2,6-dioxopiperidin-3-yl)-1-oxoisoindolin-4-yl)thio)pentanoyl)piperazin-1-yl)pyridin-2-yl)amino)-N,N-dimethyl-7H-pyrrolo[2,3-d]pyrimidine-6-carboxamide] |

Same assay, conditions: read-out: DC50(nM)/T-47D cell line, 24 h drug treatment

| SMILES | DC50 [nM] |
| --- | --- |
| CN(C)C(=O)c1cc2cnc(Nc3ccc(N4CCN(C(=O)COCCSc5cccc6c5C(=O)N(C5CCC(=O)NC5=O)C6=O)CC4)cn3)nc2n1C1CCCC1 (stereo not drawn) [SIAIS219111, 7-cyclopentyl-2-((5-(4-(2-(2-((2-(2,6-dioxopiperidin-3-yl)-1,3-dioxoisoindolin-4-yl)thio)ethoxy)acetyl)piperazin-1-yl)pyridin-2-yl)amino)-N,N-dimethyl-7H-pyrrolo[2,3-d]pyrimidine-6-carboxamide] | < 1 |
